Patent US4609655A, “Anti-ulcer imidazo-quinoline, indole and benzazepine derivatives” (John Wyeth & Brother, Ltd., priority 1983, dated 1986)
Like-named read-outs stand apart in the source and are kept apart here.

Legend:
[1] = target: T1, H^+ /K^+ ATPase (Oryctolagus cuniculus, UniProt P27112); experiment: Inhibition of 14C-aminopyrine uptake in rabbit isolated gastric glands stimulated by DBcAMP or high K+ (H+/K+ ATPase inhibition); assay type: cell-based; settings: compound at 10^-4 M, % inhibition of maximum response
T1 construct: Rabbit gastric glands are isolated from gastric mucosa; from tissue; host or cells: isolated gastric glands from gastric mucosa of the corpus region of rabbit stomach
T1 sequence (P27112 whole entry): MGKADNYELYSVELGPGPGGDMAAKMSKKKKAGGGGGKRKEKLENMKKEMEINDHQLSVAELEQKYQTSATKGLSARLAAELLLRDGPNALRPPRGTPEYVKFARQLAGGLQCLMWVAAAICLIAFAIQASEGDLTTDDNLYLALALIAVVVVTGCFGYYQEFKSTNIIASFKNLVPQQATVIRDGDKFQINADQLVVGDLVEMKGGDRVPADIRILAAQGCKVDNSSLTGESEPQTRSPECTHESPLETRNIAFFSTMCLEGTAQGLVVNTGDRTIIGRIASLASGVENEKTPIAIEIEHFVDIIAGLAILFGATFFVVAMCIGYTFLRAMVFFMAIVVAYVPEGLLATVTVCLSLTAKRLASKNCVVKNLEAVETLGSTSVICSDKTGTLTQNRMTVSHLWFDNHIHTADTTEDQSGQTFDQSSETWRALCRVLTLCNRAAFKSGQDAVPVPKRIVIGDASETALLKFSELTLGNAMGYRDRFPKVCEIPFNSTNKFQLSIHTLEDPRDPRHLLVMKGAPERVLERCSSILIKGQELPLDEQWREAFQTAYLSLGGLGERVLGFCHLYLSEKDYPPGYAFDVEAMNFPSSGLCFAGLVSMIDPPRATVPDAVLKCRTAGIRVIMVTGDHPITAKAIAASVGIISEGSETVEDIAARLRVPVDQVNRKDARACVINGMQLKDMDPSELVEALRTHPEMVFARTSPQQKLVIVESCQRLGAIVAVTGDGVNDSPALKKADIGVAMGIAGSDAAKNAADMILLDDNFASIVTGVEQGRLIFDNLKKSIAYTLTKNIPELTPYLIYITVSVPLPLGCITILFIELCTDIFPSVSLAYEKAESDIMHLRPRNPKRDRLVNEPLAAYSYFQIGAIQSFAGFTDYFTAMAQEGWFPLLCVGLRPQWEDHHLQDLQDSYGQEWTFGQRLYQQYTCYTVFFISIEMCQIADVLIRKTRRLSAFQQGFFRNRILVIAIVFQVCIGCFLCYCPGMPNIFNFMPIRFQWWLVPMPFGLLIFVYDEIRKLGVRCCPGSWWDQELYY
T1 sequence (P18597 whole entry partner): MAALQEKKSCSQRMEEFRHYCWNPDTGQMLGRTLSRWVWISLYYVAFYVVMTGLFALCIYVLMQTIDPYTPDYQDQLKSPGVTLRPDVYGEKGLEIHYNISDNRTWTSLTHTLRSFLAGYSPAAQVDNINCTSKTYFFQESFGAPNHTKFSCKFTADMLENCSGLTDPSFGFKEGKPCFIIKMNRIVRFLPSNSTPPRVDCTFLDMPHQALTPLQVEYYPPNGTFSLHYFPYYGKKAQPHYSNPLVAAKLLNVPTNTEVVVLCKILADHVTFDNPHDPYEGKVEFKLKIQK
Protocol: Compounds of formula I were also tested for anti-secretory activity by their ability to inhibit the highly specific proton transporting enzyme H^+ /K^+ ATPase.
Potential H+/K^+ ATPase inhibitors are evaluated by a technique involving the measurement of aminopyrine accumulation in rabbit isolated gastric glands. Amino-pyrine, which is a weak base, accumulates in acid-secreting cells; therefore, uptake of aminopyrine is increased by secretagogues and an inhibitor of acid secretion will reduce the response to one or more secretagogues depending upon its site of action. Compounds which reduce the response to dibutyryl cyclic adenosine monophosphate (DBcAMP) stimulation are assumed to have an intracellular site of action, and those which reduce the response to both DBcAMP and high potassium ion concentration (K^+) are thought to have an intracellular site of action at the secretory surface of the parietal cell, involving the highly specific proton--transporting enzyme, H^+ /K^+ ATPase. The following test procedure is used:
Rabbit gastric glands are isolated from gastric mucosa from the corpus region of the stomach by a method based on one described by Berglindh T., Obrink K. J., Acta Physiol. Scand. 96, 150-159 (1976). Measurement of aminopyrine uptake is carried out using a modification of the method described by Berglindh T., Hellander H. F., Obrink K. J. (ibid, 97, 401-414, 1976).
Compounds are tested at a concentration of 10^-4 M, initially, and in some cases at lower concentrations, for their ability to inhibit ^14 C-aminopyrine uptake in gastric glands, stimulated by DBcAMP and high K^+ respectively. Results are expressed as the % inhibition of the maximum response to the secretagogue induced by the test compound. An inhibitor of H^+ /K^+ ATPase would be expected to reduce the response to both secretagogues.

[2] = Stress-induced erosion test of Senay and Levine (anti-ulcer activity); assay type: in vivo; settings: Dose 100 mg/kg
Protocol: Anti-ulcer activity was determined by the stressinduced erosion test of Senay and Levine, Proc. Soc. Exp. Biol. Med., 124, 1221-3 (1967).

[3] = DBcAMP stimulation, read-out: % Inhibition to Stimulation by DBcAMP at 10^-4
[4] = high K+ stimulation, read-out: % Inhibition to Stimulation by K^+ at 10^-4

Structure (SMILES): C1=Cc2cccc3nc(SCc4ccccc4)n(c23)C1 [Example 7, 2-Benzylthio-[4H]-imidazo[4,5,1-ij]quinoline]
- inhibition at 100 µM [1, 3]: 40%
- inhibition at 100 µM [1, 4]: 63%
- Stress Induced Erosion (Senay & Levine) % Inhibition [2]: 54%

Structure (SMILES): Fc1ccc(CSc2nc3cccc4c3n2CCC4)cc1 [Example 3, 5,6-Dihydro-2-(4-fluorophenylmethylthio)-[4H]-imidazo-[4,5,1,-ij]quinoline]
- inhibition at 100 µM [1, 3]: 6.7%
- inhibition at 100 µM [1, 4]: 76%
- Stress Induced Erosion (Senay & Levine) % Inhibition [2]: 62%

Structure (SMILES): Clc1ccc(CSc2nc3cccc4c3n2CCC4)cc1 [Example 5, 2-(4-Chlorophenylmethylthio)-5,6-dihydro-[4H]-imidazo-[4,5,1-ij]quinoline]
- inhibition at 100 µM [1, 3]: 53%
- inhibition at 100 µM [1, 4]: 109%

Structure (SMILES): Fc1ccccc1CSc1nc2cccc3c2n1CCC3 [Example 6, 5,6-Dihydro-2-(2-fluorophenylmethylthio)-[4H]-imidazo-[4,5,1-ij]quinoline]
- inhibition at 100 µM [1, 3]: 40.6%
- inhibition at 100 µM [1, 4]: 93%

Structure (SMILES): Clc1ccccc1CSc1nc2cccc3c2n1CCC3 [Example 4, 2-(2-Chlorophenylmethylthio)-5,6-dihydro-[4H]-imidazo-[4,5,1-ij]quinoline]
- inhibition at 100 µM [1, 3]: 32.9%
- inhibition at 100 µM [1, 4]: 83.5%
- Stress Induced Erosion (Senay & Levine) % Inhibition [2]: 55%

Structure (SMILES): Clc1cccc(CSc2nc3cccc4c3n2CCC4)c1 [Example 2, 2-(3-Chlorobenzylthio)-5,6,-dihydro-[4H]-imidazo[4,5,1,-ij]quinoline]
- inhibition at 100 µM [1, 3]: 69%
- inhibition at 100 µM [1, 4]: 54%

Structure (SMILES): c1ccc(CSc2nc3cccc4c3n2CCC4)cc1 [Example 1, 2-Benzylthio-5,6,-dihydro-[4H]-imidazo [4,5,1-ij]-quinoline]
- inhibition at 100 µM [1, 3]: 70%
- inhibition at 100 µM [1, 4]: 111%
- Stress Induced Erosion (Senay & Levine) % Inhibition [2]: 83%
